Experimental findings from patent publication US20190298664A1, “METHOD AND KIT FOR MYOCARDIAL REPERFUSION, AND METHOD FOR ATTENUATING OR REDUCING MYOCARDIAL REPERFUSION INJURY” (Academia Sinica, priority 2018, published 2019) are described below.

Common to all, as to assay type: in vivo, mouse
Common to all, as to settings: PVS 5 mg/kg intramyocardial at beginning of ischemia; ischemia 1 h, reperfusion 4 h

The subject of test [1] is I/R mice. Briefly: Serum troponin I measurement in I/R mice. The method, then:
(§1) We anesthetized the mouse with 5% isoflurane mixed with room air until loss of sensation of pain and then maintained the mouse in anesthesia status with 2% isoflurane mixed with room air through the whole procedure. The mouse's body temperature was maintained at 37° C. by a heating pad. After the mouse was intubated, we provided artificial ventilation to the mouse with a small animal ventilator. Then the chest cavity was opened at the second intercostal space and homemade chest retractors were utilized to widen the incision. We pulled the pericardium apart carefully and exposed the left anterior descending artery (LAD). A 7-0 silk was put underneath the LAD at the position of the tip of the left auricle, a 6 mm length of PE-10 tube was put on the surface of the LAD, and then a double knot was made to occlude the blood flow of LAD. The success of ligation was confirmed by paling the anterior wall of the LV. For the reperfusion group, the LAD knot would be untied for the purpose of reperfusion after 1 hour of ischemia. For the sham operation group, all procedures were the same except for the knot that occluded the LAD flow. After the successful procedure, we left the silk in situ, closed the chest cavity and weaned the animal from the ventilator.
Before the mouse was sacrificed, blood was drawn from the facial vein. The blood was put in the room temperature for 30 minutes and then centrifuged at 4° C. for 15 minutes at 5000 rpm. After centrifuging, the serum is collected for troponin I measurement with troponin I ELISA kit (KT-469, Kamiya Biomedical Company) according to the manufacture's protocol.

Test [2] deals with I/R mice. The test can be described thus: Myocardial infarct size (Evans blue/TTC staining) in I/R mice. As to the method:
as §1
At the end of experiment, the animal was sacrificed. We opened the chest cavity and exposed the heart and aorta. The heart was perfused with 0.9% saline from the apex until the coronary vessels and myocardium turning into pale color. After saline perfusion, the LAD knot was tied again. 1 mL of 1% Evans blue dye was delivered into the heart through the aortic root by retrograde injection. The dye uniformly perfused the whole heart except in the area of the heart previously perfused by the occluded coronary artery (area at risk, AAR). Then the heart was quickly removed, washed in ice-cold 0.9% saline followed by frozen at −20° C. for 20 minutes, then cut into slices of 1 mm with heart matrix. […] The areas stained with Evans blue negative but TTC-positive (AAR), and TTC-negative area (infarct area) were all measured digitally by ImageJ software. […]

Test [3] has as its system myocardial protein tyrosine phosphorylation. Briefly: Immunoblotting of heart extracts of I/R mice (anti-pTyr, p-Paxillin, p-p130cas, p-ErbB-2). As to the method: as §1
Hearts from mice received different treatment were gently homogenized in ice-cold RIPA buffer [250 mM Tris-HCl pH 7.4, 750 mM NaCl, detergent mix (5% NP-40, 2.5% Na-deoxycholate and 0.5% SDS), and 1× protease inhibitor cocktail (EDTA free)] containing phosphatase inhibitors (2 mM Na3VO4, 10 mM NaF, and 10 mM Na2P2O7). The homogenates were centrifuged at 16,100×g at 4° C. for 10 minutes to remove the debris. Protein concentrations were determined by Bradford protein assay. Equal amounts of protein extract from those mice were separated by SDS-PAGE on an 8% or 10% polyacrylamide gel and then transferred to PVDF membrane. Membranes were incubated with indicated primary antibody at 4° C. overnight followed by incubated with secondary antibodies for 1 hour at room temperature. The protein abundance was detected by the signal intensity of each specific band.
(In general: Immunoblotting shows a protein as a band on a membrane.)

As to `C=CS(=O)(=O)c1ccccc1` [PVS, phenyl vinyl sulfone], in the test with I/R mice [1], the “Release of troponin I into the blood” value is on record as “decreased”. Moreover, in the test on I/R mice [2], the “Area of heart infarction” value is listed as “reduced”. Further, the “I/R-caused tyrosine dephosphorylation of myocardial proteins” value in test [3] is on record as “rebounded”.
